Experiment: Static partitioning test for DME in brine and oil
Type: physicochemical
Details: room temperature, >12 hours equilibration, 150 psi
Description: To measure partitioning of the miscible solvent in contact with oil and brine for a particular chemical concentration, salinity of aqueous phase, oil type, temperature, and pressure.
Load accumulator #1 with brine and accumulator #2 with oil. Apply vacuum to sapphire cell #1 and sapphire cell #2 on the loading side of the piston. Fill the opposite side with water or lab oil. Prepare loading loop with a known volume with liquid DME at room temperature (pressure >100 psi) to ensure a target concentration of DME when injected. Connect loading loop to sapphire cell #1 (vacuum side) and to accumulator #1. Connect the opposite side of the sapphire (water side) to BPR to keep pressure inside the cell at 150 psi. Then, displace DME from the loop with brine and inject into the sapphire cell #1. Isolate and disconnect the sapphire cell #1. Then, rock the cell until liquid DME and brine get properly mixed and homogenized. Equilibrate aqueous mix for a couple of hours. Connect the accumulator #2 with the sapphire cell #2, and the sapphire cell to the BPR. Then, inject oil into the sapphire cell #2. The volume of the injected oil is the one for the desired aqueous to oil ratio (i.e. 50/50 aqueous to oil by volume). Connect the sapphire cell #1 (DME in aqueous side) to the sapphire cell #2 (oil side) and inject DME in aqueous side to cell #2. The volume of the injected aqueous phase is the one for the desired aqueous to oil ratio. The pressure inside the sapphire cell # is controlled by BPR at 150 psi. Isolate and disconnect the sapphire cell #2. Then, rock the cell until liquid aqueous and oil get properly mixed. Let the cell equilibrate for 12 hours at room temperature (˜70° F.). Prepare a solution of 1:1 by volume of deionized water and methanol. Collect a sample of aqueous phase (DME in brine) from cell #2 and mix it with methanol solution in a volumetric proportion of 1:1. Measure DME concentration in aqueous mixture from previous step via gas chromatography (GC). Then, calculate partitioning of DME in between brine and oil phase, this is the partitioning coefficient.
KDME=DME partitioning coefficient; CDME,aq=mass fraction of DME in aqueous phase at equilibrium; and CDME,oil=mass fraction of DME in oleic phase at equilibrium.
Alternatively, to measuring DME concentration via GC and after isolating and disconnecting sapphire cell #2, both aqueous phase and oleic phase could be separated, and then individually taken to a PVT cell at 1 atm and 70° F. After DME evolves from each phase as gas, amounts of evolved DME could be measured and partitioning coefficient calculated.

**Q.** For COC [DME, dimethyl ether], which DME partition coefficient (0.5% DME + Methanol, Volatile Oil, salinity 115,000 ppm) is on record?
**A.** 1.13

**Q.** What about the DME partition coefficient (0.5% DME, Volatile Oil, salinity 0 - DI water) of the same compound?
**A.** 0.81

**Q.** What about the DME partition coefficient (0.5% DME, Volatile Oil, salinity 103,000 ppm) of the same compound?
**A.** 1.15

**Q.** And the DME partition coefficient (0.5% DME, Volatile Oil, salinity 150,000 ppm)?
**A.** 1.27

**Q.** What about the DME partition coefficient (0.5% DME, Volatile Oil, salinity 300,000 ppm) of the same compound?
**A.** 1.26

**Q.** And the DME partition coefficient (1% DME + Methanol, Black Oil, salinity 115,000 ppm)?
**A.** 1.87

**Q.** And the DME partition coefficient (1% DME + Methanol, Volatile Oil, salinity 115,000 ppm)?
**A.** 2.4
